From EP0745595A1, “3-(3-Aryloxyphenyl)-1-(substituted methyl)-s-triazine-2,4,6-oxo or thiotrione herbicidal agents” (American Cyanamid Company, priority 1995, dated 1996)

Tests used:
Type in all cases: in vivo
[1] = test system: ABUTILON THEOPHRASTI, MEDIC.; test: Postemergence herbicidal evaluation, ABUTH (Velvetleaf); conditions: for ABUTH, herbicide rating (0-9): rated four to five weeks after treatment, averaged
Procedure, shortened: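 This postemergence herbicide test used two-week-old velvetleaf seedlings grown in jiffy flats. Each compound was sprayed at 40 psi as a dispersion in 50/50 acetone/water with 0.5% TWEEN®20 surfactant. Plants then received routine greenhouse care. After four to five weeks, injury was scored visually on a 0-9 scale against a control, and replicate tests were averaged.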

[2] = test system: ECHINOCHLOA CRUS-GALLI, (L) BEAU; test: Postemergence herbicidal evaluation, ECHCG (Barnyardgrass); parameters: key to ECHCG rating / Herbicidal effect rating, ECHCG / ECHCG: 0-9 visual rating scale vs untreated control
Procedure, shortened: (§1)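 Application to seedlings around two weeks old: test compound in 50/50 acetone/water, 0.5% TWEEN 20, sprayed at 40 psi for roughly 0.125–0.500 kg/ha. Evaluation: 0–9 visual scale after 4–5 weeks, replicates averaged.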

[3] = test system: TRITICUM AESTIVUM, CV. APOLLO; test: Postemergence herbicidal evaluation, TRZAWO (Wheat, Winter, CV. APOLLO); conditions: for TRZAWO, herbicide rating (0-9): crop, rated four to five weeks after treatment, averaged
Procedure, shortened: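 This greenhouse postemergence test applied compounds to roughly two-week-old wheat seedlings grown in jiffy flats. The spray solution was 50/50 acetone/water with 0.5% TWEEN®20, a polyoxyethylene sorbitan monolaurate, sprayed from a nozzle run at 40 psi. After four to five weeks of standard greenhouse care, injury was scored from 0 to 9 by comparing stand, vigor, malformation, size, chlorosis and overall appearance with a control. Multiple tests were averaged.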

[4] = test system: AMBROSIA ARTEMISIIFOLIA, L.; test: Postemergence herbicidal evaluation, AMBEL (Ragweed, Common); conditions: for AMBEL, herbicide rating (0-9): rated four to five weeks after treatment, averaged
Procedure, shortened: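 Postemergence herbicidal activity on AMBEL (common ragweed) was assessed on two-week-old seedlings grown in jiffy flats. Treatment solutions of 50/50 acetone/water with 0.5% TWEEN®20 surfactant were sprayed at 40 psi. After four to five weeks in the greenhouse, plants were scored 0-9 against a control for stand, vigor, malformation, size, chlorosis and overall appearance, with multiple tests averaged.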

CHENOPODIUM ALBUM, L. [5] = test: Postemergence herbicidal evaluation, CHEAL (Lambsquarters, Common);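 also: higher means more injury with 8 approaching complete kill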
Procedure, shortened: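 Postemergence herbicidal activity on Chenopodium album was tested by spraying two-week-old seedlings grown in jiffy flats with compound in acetone/water (50/50) plus 0.5% TWEEN®20, using a 40 psi nozzle. Four to five weeks after treatment, stand, vigor, malformation, size, chlorosis and overall appearance were scored 0-9 relative to controls, with repeat tests averaged.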

ZEA MAYS L. = test: Postemergence herbicidal evaluation, ZEAMX (Corn, Field);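 also: higher means more injury with 8 approaching complete kill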
Procedure, shortened: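 This greenhouse postemergence test treated corn plants about two weeks old. Compounds in a 50/50 acetone/water mixture with 0.5% TWEEN®20 were applied through a spray nozzle at 40 psi. After four to five weeks, injury was scored 0-9 against an untreated control, judging stand, vigor, malformation, size, chlorosis and overall appearance. Repeated tests were averaged.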

CASSIA OBTUSIFOLIA, L. = test: Postemergence herbicidal evaluation, CASOB (Sicklepod); parameters: key to CASOB rating / Herbicidal effect rating, CASOB / CASOB: 0-9 visual rating scale vs untreated control; conditions: for CASOB, herbicide rating (0-9): rated four to five weeks after treatment, averaged
Procedure, shortened: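 Postemergence foliar spray at approximately 0.125–0.500 kg/ha onto two-week seedlings; greenhouse hold, then 0–9 visual injury rating after 4–5 weeks.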

[6] = test system: ORYZA SATIVA, L. TEBONNET; test: Rice tolerance to post-transplant applications under flooded paddy conditions, ORYSAT (Rice, Tebonnet); conditions: for Herbicidal effect rating, ORYSAT: post-transplant rice, 3-4 weeks after treatment; for ORYSAT: post-transplanted rice
Procedure, shortened: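 Greenhouse pots of silt loam, each with two transplanted ten-day-old seedlings, are held under 1.5 to 3 cm of standing water. Three days later the compound is applied to the flooded surface at about 0.5, 0.25, 0.125 or 0.063 kg/ha. Damage is scored visually 0-9 after 3-4 weeks.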

IPOMOEA SPP. = test: Postemergence herbicidal evaluation, IPOSS (Morningglory spp.); conditions: for IPOSS, herbicide rating (0-9): rated four to five weeks after treatment, averaged
Procedure, shortened: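 In this greenhouse postemergence herbicide test on Ipomoea spp. (morningglory), compounds in 50/50 acetone/water with 0.5% TWEEN®20 were sprayed at 40 psi onto seedlings about two weeks old grown in jiffy flats. After four to five weeks, injury was scored on a 0-9 scale covering stand, vigor, malformation, size, chlorosis and overall appearance versus control, with repeat tests averaged.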

[7] = test system: SETARIA VIRIDIS, (L) BEAU; test: Postemergence herbicidal evaluation, SETVI (Foxtail, Green); parameters: key to SETVI rating / Herbicidal effect rating, SETVI / SETVI: 0-9 visual rating scale vs untreated control
Procedure, shortened: as §1

CHENOPODIUM ALBUM, L. [8] = test: Preemergence herbicidal evaluation, CHEAL (Lambsquarters, Common); conditions: for CHEAL herbicidal rating: rated four to five weeks after treatment
Procedure, shortened: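 Injury scored visually (0–9; stand, vigor, malformation, size, chlorosis) versus untreated control, four to five weeks post-treatment. Application: aqueous acetone spray onto freshly planted soil cups, equivalent to about 0.125 to 0.50 kg/ha, plants then kept under standard greenhouse care.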

SMILES: COC(=O)Cn1c(=O)n(C)c(=O)n(-c2cc(Oc3c(F)cc(C(F)(F)F)cc3Cl)ccc2[N+](=O)[O-])c1=O [Compound 16, Methyl 3-{5-[(2-chloro-α,α,α,6-tetrafluoro-p-tolyl)oxy]-2-nitrophenyl}tetrahydro-5-methyl-2,4,6-trioxo-s-triazine-1(2H)-acetate]
- ABUTH ([1]; Rate 0.008 kg/ha): 5.5
- ABUTH ([1]; Rate 0.016 kg/ha): 8.3
- ABUTH ([1]; Rate 0.031 kg/ha): 8.0
- ABUTH ([1]; Rate 0.063 kg/ha): 8.3
- ABUTH ([1]; Rate 0.125 kg/ha): 9.0
- ABUTH, herbicide rating (0-9) ([1]; Rate 0.125 kg/ha): 9.0
- ABUTH, herbicide rating (0-9) ([1]; Rate 0.250 kg/ha): 9.0
- ABUTH, herbicide rating (0-9) ([1]; Rate 0.500 kg/ha): 9.0
- ECHCG ([2]; Rate 0.008 kg/ha): 0.0
- ECHCG ([2]; Rate 0.016 kg/ha): 0.5
- ECHCG ([2]; Rate 0.031 kg/ha): 0.7
- ECHCG ([2]; Rate 0.063 kg/ha): 1.7
- ECHCG ([2]; Rate 0.125 kg/ha): 3.7
- TRZAWO ([3]; Rate 0.008 kg/ha): 4.5
- TRZAWO ([3]; Rate 0.016 kg/ha): 4.7
- TRZAWO ([3]; Rate 0.031 kg/ha): 6.4
- TRZAWO ([3]; Rate 0.063 kg/ha): 7.4
- TRZAWO ([3]; Rate 0.125 kg/ha): 8.4
- TRZAWO, herbicide rating (0-9) ([3]; Rate 0.125 kg/ha): 8.4
- TRZAWO, herbicide rating (0-9) ([3]; Rate 0.250 kg/ha): 8.4
- TRZAWO, herbicide rating (0-9) ([3]; Rate 0.500 kg/ha): 8.4
- AMBEL ([4]; Rate 0.008 kg/ha): 7.0
- AMBEL ([4]; Rate 0.016 kg/ha): 9.0
- AMBEL ([4]; Rate 0.031 kg/ha): 9.0
- AMBEL ([4]; Rate 0.063 kg/ha): 9.0
- AMBEL ([4]; Rate 0.125 kg/ha): 9.0
- AMBEL, herbicide rating (0-9) ([4]; Rate 0.125 kg/ha): 9.0
- AMBEL, herbicide rating (0-9) ([4]; Rate 0.250 kg/ha): 9.0
- AMBEL, herbicide rating (0-9) ([4]; Rate 0.500 kg/ha): 9.0
- CHEAL (CHENOPODIUM ALBUM, L. [5]; Rate 0.008 kg/ha): 0.0
- CHEAL (CHENOPODIUM ALBUM, L. [5]; Rate 0.016 kg/ha): 1.5
- CHEAL (CHENOPODIUM ALBUM, L. [5]; Rate 0.031 kg/ha): 3.0
- CHEAL (CHENOPODIUM ALBUM, L. [5]; Rate 0.063 kg/ha): 3.7
- CHEAL (CHENOPODIUM ALBUM, L. [5]; Rate 0.125 kg/ha): 6.5
- ZEAMX (ZEA MAYS L.; Rate 0.008 kg/ha): 2.0
- ZEAMX (ZEA MAYS L.; Rate 0.016 kg/ha): 2.4
- ZEAMX (ZEA MAYS L.; Rate 0.031 kg/ha): 3.0
- ZEAMX (ZEA MAYS L.; Rate 0.063 kg/ha): 3.4
- ZEAMX (ZEA MAYS L.; Rate 0.125 kg/ha): 4.2
- CASOB (CASSIA OBTUSIFOLIA, L.; Rate 0.008 kg/ha): 5.5
- CASOB (CASSIA OBTUSIFOLIA, L.; Rate 0.016 kg/ha): 8.7
- CASOB (CASSIA OBTUSIFOLIA, L.; Rate 0.031 kg/ha): 9.0
- CASOB (CASSIA OBTUSIFOLIA, L.; Rate 0.063 kg/ha): 8.3
- CASOB (CASSIA OBTUSIFOLIA, L.; Rate 0.125 kg/ha): 9.0
- CASOB, herbicide rating (0-9) (CASSIA OBTUSIFOLIA, L.; Rate 0.125 kg/ha): 9.0
- CASOB, herbicide rating (0-9) (CASSIA OBTUSIFOLIA, L.; Rate 0.250 kg/ha): 9.0
- CASOB, herbicide rating (0-9) (CASSIA OBTUSIFOLIA, L.; Rate 0.500 kg/ha): 9.0
- Herbicidal effect rating, ORYSAT ([6]; 0.063 kg/ha): 3.5
- Herbicidal effect rating, ORYSAT ([6]; 0.125 kg/ha): 5.0
- Herbicidal effect rating, ORYSAT ([6]; 0.250 kg/ha): 7.0
- Herbicidal effect rating, ORYSAT ([6]; 0.500 kg/ha): 6.0
- ORYSAT ([6]; Rate 0.031 kg/ha): 3.0
- ORYSAT ([6]; Rate 0.063 kg/ha): 3.5
- ORYSAT ([6]; Rate 0.125 kg/ha): 5.0
- ORYSAT ([6]; Rate 0.250 kg/ha): 7.0
- IPOSS (IPOMOEA SPP.; Rate 0.008 kg/ha): 6.0
- IPOSS (IPOMOEA SPP.; Rate 0.016 kg/ha): 7.0
- IPOSS (IPOMOEA SPP.; Rate 0.031 kg/ha): 7.0
- IPOSS (IPOMOEA SPP.; Rate 0.063 kg/ha): 8.3
- IPOSS (IPOMOEA SPP.; Rate 0.125 kg/ha): 9.0
- IPOSS, herbicide rating (0-9) (IPOMOEA SPP.; Rate 0.125 kg/ha): 9.0
- IPOSS, herbicide rating (0-9) (IPOMOEA SPP.; Rate 0.250 kg/ha): 9.0
- IPOSS, herbicide rating (0-9) (IPOMOEA SPP.; Rate 0.500 kg/ha): 9.0
- SETVI ([7]; Rate 0.008 kg/ha): 0.0
- SETVI ([7]; Rate 0.016 kg/ha): 0.0
- SETVI ([7]; Rate 0.031 kg/ha): 0.0
- SETVI ([7]; Rate 0.063 kg/ha): 0.8
- SETVI ([7]; Rate 0.125 kg/ha): 1.3
- CHEAL (CHENOPODIUM ALBUM, L. [8]; Rate 0.031 kg/ha): 9.0
- CHEAL (CHENOPODIUM ALBUM, L. [8]; Rate 0.063 kg/ha): 9.0
- CHEAL (CHENOPODIUM ALBUM, L. [8]; Rate 0.125 kg/ha): 9.0
- CHEAL herbicidal rating (CHENOPODIUM ALBUM, L. [8]; Rate 0.125 kg/ha): 9.0
- CHEAL (CHENOPODIUM ALBUM, L. [8]; Rate 0.250 kg/ha): 9.0
- CHEAL herbicidal rating (CHENOPODIUM ALBUM, L. [8]; Rate 0.250 kg/ha): 9.0
- CHEAL herbicidal rating (CHENOPODIUM ALBUM, L. [8]; Rate 0.500 kg/ha): 9.0
